The subject of this data set is rodent carcinogenicity bioassays, tumor incidence. Nature of the data set: CCRIS carcinogenicity studies. In outline:
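NCI-built, expert-reviewed records of carcinogenicity and related test outcomes (mutagenicity, tumor promotion/inhibition) compiled from published and report sources, historical span 1985-2011, not updated.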

The source made the active and inactive calls. How the calls were made is not given here.

In the case of `CN(C)CCC(c1ccc(Cl)cc1)c1ccccn1` (configuration not stated), the carcinogen call reads like this: (Species: MOUSE, Strain/Sex: B6C3F1/FEMALE, Route: GAVAGE, Dose: 0, 100, 200 MG/KG IN DEIONIZED WATER 5 D/WK FOR 103 WK, Dose: 0, 100, 200 MG/KG IN DEIONIZED WATER 5 D/WK FOR 103 WK) “inactive; negative”; (Species: MOUSE, Strain/Sex: B6C3F1/MALE, Route: GAVAGE, Dose: 0, 25, 50 MG/KG IN DEIONIZED WATER 5 D/WK FOR 103 WK, Dose: 0, 25, 50 MG/KG IN DEIONIZED WATER 5 D/WK FOR 103 WK) “inactive; negative”; (Species: RAT, Strain/Sex: F344/FEMALE, Route: GAVAGE, Dose: 0, 30, 60 MG/KG IN DEIONIZED WATER 5 D/WK FOR 103 WK, Dose: 0, 30, 60 MG/KG IN DEIONIZED WATER 5 D/WK FOR 103 WK) “inactive; negative”; (Species: RAT, Strain/Sex: F344/FEMALE, Route: ORAL, Dose: 0, 1000 PPM IN DIET FOR 106 WK (STUDY DURATION: 130 WK)) “inactive; negative”; (Species: RAT, Strain/Sex: F344/MALE, Route: GAVAGE, Dose: 0, 15, 30 MG/KG IN DEIONIZED WATER 5 D/WK FOR 103 WK, Dose: 0, 15, 30 MG/KG IN DEIONIZED WATER 5 D/WK FOR 103 WK) “inactive; negative”; (Species: RAT, Strain/Sex: F344/MALE, Route: ORAL, Dose: 0, 1000 PPM IN DIET FOR 106 WK (STUDY DURATION: 130 WK)) “inactive; negative”.
In the case of `O=C(O)CN(CC(=O)O)CC(=O)O`, the carcinogen call is, setting by setting: (Species: MOUSE, Strain/Sex: B6C3F1/FEMALE, Route: ORAL, Dose: 0, 2500, 5000 PPM IN DIET (STUDY DURATION: 18 MO), Dose: 0, 2500, 5000 PPM IN DIET (STUDY DURATION: 18 MO)) “inactive; negative”; (Species: MOUSE, Strain/Sex: B6C3F1/FEMALE, Route: ORAL, Dose: 0, 7500, 15000 PPM IN DIET, Dose: 0, 7500, 15000 PPM IN DIET) “inactive; negative”; (Species: MOUSE, Strain/Sex: B6C3F1/MALE, Route: ORAL, Dose: 0, 2500, 5000 PPM IN DIET (STUDY DURATION: 18 MO), Dose: 0, 2500, 5000 PPM IN DIET (STUDY DURATION: 18 MO)) “inactive; negative”; (Species: MOUSE, Strain/Sex: B6C3F1/MALE, Route: ORAL, Dose: 0, 7500, 15000 PPM IN DIET, Dose: 0, 7500, 15000 PPM IN DIET, Tumor Site: Type of Lesion: KIDNEY: MALIGNANT TUMOR) “active; positive”; (Species: RAT, Strain/Sex: F344/FEMALE, Route: ORAL, Dose: 0, 200, 2000, 20000 PPM IN DIET (STUDY DURATION: 24 MO), Dose: 0, 200, 2000, 20000 PPM IN DIET (STUDY DURATION: 24 MO), Tumor Site: Type of Lesion: URINARY BLADDER: TUMOR, URETER: TUMOR, KIDNEY: TUMOR, Tumor Site: Type of Lesion: URINARY BLADDER: TUMOR, URETER: TUMOR, KIDNEY: TUMOR) “active; positive”; (Species: RAT, Strain/Sex: F344/FEMALE, Route: ORAL, Dose: 0, 7500, 1500 PPM IN DIET (STUDY DURATION: 18 MO), Dose: 0, 7500, 1500 PPM IN DIET (STUDY DURATION: 18 MO), Tumor Site: Type of Lesion: URINARY BLADDER: PAPILLOMA OR SQUAMOUS CELL CARCINOMA OR TRANSITIONAL CELL CARCINOMA) “equivocal”. Moreover, the carcinogen call (Species: RAT, Strain/Sex: F344/FEMALE, Route: ORAL, Dose: 0, 7500, 15000 PPM IN DIET, Dose: 0, 7500, 15000 PPM IN DIET, Tumor Site: Type of Lesion: URINARY BLADDER: MALIGNANT TUMOR) was “active; positive”; the carcinogen call (Species: RAT, Strain/Sex: F344/MALE, Route: ORAL, Dose: 0, 200, 2000, 20000 PPM IN DIET (STUDY DURATION: 24 MO), Dose: 0, 200, 2000, 20000 PPM IN DIET (STUDY DURATION: 24 MO), Tumor Site: Type of Lesion: KIDNEY: TUMOR, URETER: TUMOR) is “active; positive”; the carcinogen call (Species: RAT, Strain/Sex: F344/MALE, Route: ORAL, Dose: 0, 7500, 15000 PPM IN DIET (STUDY DURATION: 18 MO), Dose: 0, 7500, 15000 PPM IN DIET (STUDY DURATION: 18 MO), Tumor Site: Type of Lesion: KIDNEY: TUBULAR CELL ADENOCARCINOMA OR SARCOMA METASTATIC OR HAMARTOMA, RENAL PELVIS: TRANSIT CELL PAPILLOMA) is “equivocal”; the carcinogen call (Species: RAT, Strain/Sex: F344/MALE, Route: ORAL, Dose: 0, 7500, 15000 PPM IN DIET, Dose: 0, 7500, 15000 PPM IN DIET) is “inactive; negative”; the carcinogen call (Species: RAT, Strain/Sex: SPRAGUE-DAWLEY/MALE, Route: ORAL, Dose: 0, 1000 PPM (PURITY NOT REPORTED) IN DRINKING WATER FOR 2 YR, Tumor Site: Type of Lesion: KIDNEY: TUBULAR CELL ADENOMA OR ADENOCARCINOMA) was “active; positive”.
Take `Cc1cc2ccccc2c2ccc3c(c12)[C@@H]1O[C@@H]1[C@H](O)[C@H]3O`: the carcinogen call is “active; positive” (Species: MOUSE, Strain/Sex: ICR/FEMALE, Route: INTRAPERITONEAL, Dose: 0, 8 NMOL IN 5 µL DMSO ON D 1, 16 NMOL IN 10 µL ON D 8 AND 32 NMOL IN 20 µL ON D 15 OF LIFE (STUDY DURATION: 35 WK), Tumor Site: Type of Lesion: LUNG: TUMOR); “active; positive” (Species: MOUSE, Strain/Sex: ICR/FEMALE, Route: INTRAPERITONEAL, Dose: 0, 8 NMOL IN 5 µL DMSO TO PUPS ON D 1/OF LIFE THEN 16 NMOL IN 10 µL ON D 8 AND 3 NMOL IN 20 µL ON D 15 (STUDY DURATION:, Tumor Site: Type of Lesion: LUNG: TUMOR); “active; positive” (Species: MOUSE, Strain/Sex: ICR/FEMALE, Route: INTRAPERITONEAL, Dose: 8 NMOL/5 µL DMSO ON DAY 1, 16 NMOL/10 µL ON DAY 8, AND 32 NMOL/20 µL ON DAY 15 OF AGE (STUDY DURATION: 35 WK), Tumor Site: Type of Lesion: LUNG: TUMORS); “active; positive” (Species: MOUSE, Strain/Sex: ICR/MALE, Route: INTRAPERITONEAL, Dose: 0, 8 NMOL IN 5 µL DMSO ON D 1, 16 NMOL IN 10 µL ON D 8 AND 32 NMOL IN 20 µL ON D 15 OF LIFE (STUDY DURATION: 35 WK), Tumor Site: Type of Lesion: LUNG: TUMOR, LIVER: TUMOR); “active; positive” (Species: MOUSE, Strain/Sex: ICR/MALE, Route: INTRAPERITONEAL, Dose: 0, 8 NMOL IN 5 µL DMSO TO PUPS ON D 1/OF LIFE THEN 16 NMOL IN 10 µL ON D 8 AND 3 NMOL IN 20 µL ON D 15 (STUDY DURATION:, Tumor Site: Type of Lesion: LUNG: TUMOR, LIVER: TUMOR); “active; positive” (Species: MOUSE, Strain/Sex: ICR/MALE, Route: INTRAPERITONEAL, Dose: 8 NMOL/5 µL DMSO ON DAY 1, 16 NMOL/10 µL ON DAY 8, AND 32 NMOL/20 µL ON DAY 15 OF AGE (STUDY DURATION: 35 WK), Tumor Site: Type of Lesion: LUNG: TUMORS, LIVER: TUMORS).
Take `c1ccc2occc2c1`: the carcinogen call (Species: MOUSE, Strain/Sex: B6C3F1/FEMALE, Route: GAVAGE, Dose: 0, 120, 240 MG/KG IN CORN OIL 5 D/WK FOR 103 WK (STUDY DURATION: 104 WK), Dose: 0, 120, 240 MG/KG IN CORN OIL 5 D/WK FOR 103 WK (STUDY DURATION: 104 WK), Tumor Site: Type of Lesion: LUNG: ALVEOLAR/BRONCHIOLAR ADENOMA, ALVEOLAR/BRONCHIOLAR CARCINOMA, LIVER: HEPATOCELLULAR ADENOMA, HEPATOCELLULAR ADENOM) is “active; positive”; the carcinogen call (Species: MOUSE, Strain/Sex: B6C3F1/MALE, Route: GAVAGE, Dose: 0, 60, 120 MG/KG IN CORN OIL 5 D/WK FOR 103 WK (STUDY DURATION: 104 WK), Dose: 0, 60, 120 MG/KG IN CORN OIL 5 D/WK FOR 103 WK (STUDY DURATION: 104 WK), Tumor Site: Type of Lesion: LUNG: ALVEOLAR/BRONCHIOLAR ADENOMA, ALVEOLAR/BRONCHIOLAR ADENOMA OR CARCINOMA, LIVER: HEPATOCELLULAR ADENOMA, HEPATOCELL) was “active; positive”; the carcinogen call (Species: RAT, Strain/Sex: F344/FEMALE, Route: GAVAGE, Dose: 0, 60, 120 MG/KG IN CORN OIL 5 D/WK FOR 103 WK (STUDY DURATION: 104 WK), Dose: 0, 60, 120 MG/KG IN CORN OIL 5 D/WK FOR 103 WK (STUDY DURATION: 104 WK), Tumor Site: Type of Lesion: KIDNEY: TUBULAR CELL ADENOCARCINOMA) was “active; positive”; the carcinogen call (Species: RAT, Strain/Sex: F344/MALE, Route: GAVAGE, Dose: 0, 30, 60 MG/KG IN CORN OIL 5 D/WK FOR 103 WK (STUDY DURATION: 104 WK), Dose: 0, 30, 60 MG/KG IN CORN OIL 5 D/WK FOR 103 WK (STUDY DURATION: 104 WK)) is “inactive; negative”.
